This is an account of results in ChEMBL document CHEMBL5252617, “Design, synthesis and biological evaluation of novel N-(methyl-d3) pyridazine-3-carboxamide derivatives as TYK2 inhibitors” (Bioorg Med Chem Lett, 2023).

Series [1] has as its target T1, Non-receptor tyrosine-protein kinase TYK2 (Homo sapiens, UniProt P29597). As to the kind of experiment: Binding affinity to TYK2 JH2 domain (unknown origin) assessed as melting temperature at 1 uM by thermal shift assay. As to conditions: tested as the 2H-labelled form.
The target in series [2] is T1, Non-receptor tyrosine-protein kinase TYK2. As to the kind of experiment: Binding affinity to TYK2 JH2 domain (unknown origin) assessed as melting temperature at 10 uM by thermal shift assay. As to conditions: tested as the 2H-labelled form.
The next series has as its system Mus musculus. Nature of the series: Anti-colitis activity against anti-CD40 induced immunodeficient Rag1 KO colitis mouse model assessed as decrease in colon weight at 15 to 30 mg/kg, po bid. As to conditions: dose 15-30 mg/kg, tested as the 2H-labelled form. Format: functional, organism-based.
The target in series [3] is T1, Non-receptor tyrosine-protein kinase TYK2. Nature of the series: Inhibition of TYK2 dependent IFNalpha-stimulated STAT3 phosphorylation in human Jurkat cells. Format: cell-based.
The nature of series [4]: Stability in mouse liver microsomes assessed as parent compound remaining measured after 60 mins. As to conditions: read-out: Stability. Format: ADME, Microsome. Background: Liver microsomes are a subcellular fraction often used to study metabolism.
A short description of series [5]: Stability in human liver microsomes assessed as parent compound remaining measured after 60 mins. Format: ADME, Microsome. As to conditions: read-out: Stability.
Series [6] is described as follows: Volume of distribution in mouse at 1 mg/kg, iv. Format: ADME, organism-based. As to conditions: in vivo.
Series [7] can be described thus: Cmax in mouse at 30 mg/kg, IG. Format: ADME, organism-based. As to conditions: in vivo, po. Details: dose 30 mg/kg, route ig.
A further series deals with JAK3/JAK1 (Homo sapiens, UniProt P23458+P52333). As to the kind of experiment: Inhibition of JAK1/3 dependent IL-2 stimulated STAT5 phosphorylation in CD3-positive T cells (unknown origin). Format: cell-based, CD3-positive T cell.
The next series addresses CYP2D6 (Homo sapiens, UniProt P10635). As to the kind of experiment: Inhibition of CYP2D6 (unknown origin) at 1 uM relative to control. Format: ADME.
The nature of series [8]: Half life in mouse at 1 mg/kg, iv. Format: ADME, organism-based. As to conditions: in vivo.
Series [9] in a line: Plasma protein binding in anti-CD40 induced immunodeficient Rag1 KO colitis mouse model. Format: ADME, cell-free. Particulars: read-out: PPB (converted).
A further series addresses T2, CYP1A2 (Homo sapiens, UniProt P05177).
T2 sequence (P05177 whole entry): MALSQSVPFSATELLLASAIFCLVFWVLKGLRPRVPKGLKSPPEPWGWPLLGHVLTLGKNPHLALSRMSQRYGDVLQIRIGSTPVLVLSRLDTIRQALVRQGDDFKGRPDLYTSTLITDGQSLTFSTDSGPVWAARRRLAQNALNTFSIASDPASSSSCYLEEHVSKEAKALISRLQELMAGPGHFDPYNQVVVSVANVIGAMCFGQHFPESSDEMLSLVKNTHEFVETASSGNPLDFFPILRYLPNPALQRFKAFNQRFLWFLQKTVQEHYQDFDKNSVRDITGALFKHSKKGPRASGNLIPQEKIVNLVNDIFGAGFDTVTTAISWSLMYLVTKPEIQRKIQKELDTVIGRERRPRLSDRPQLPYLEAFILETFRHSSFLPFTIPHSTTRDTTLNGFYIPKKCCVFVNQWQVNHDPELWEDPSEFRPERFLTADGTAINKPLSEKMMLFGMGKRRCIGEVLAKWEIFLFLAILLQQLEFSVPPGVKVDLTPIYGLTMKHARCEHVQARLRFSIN
Nature of the series: Inhibition of CYP1A2 (unknown origin) at 1 uM relative to control. Format: ADME.

Series [10] in a line: Toxicity in anti-CD40 induced immunodeficient Rag1 KO colitis mouse model assessed as body weight loss at 10 to 30 mg/kg, po bid administered for 6 days. Particulars: in vivo, 144 h, dose 10-30 mg/kg, time 6 day. Format: organism-based.
Series [11] in a line: C0 in mouse at 1 mg/kg, iv. Format: ADME, organism-based. As to conditions: in vivo.
Series [12] is described as follows: MRT (0 to t) in mouse at 1 mg/kg, iv. Format: ADME, organism-based. As to conditions: in vivo.
The nature of series [13]: AUC(0 to infinity) in mouse at 1 mg/kg, iv. Format: ADME, organism-based. The arrangement: dose 1 mg/kg, route iv. Particulars: in vivo.
Another series has as its target CYP3A4 (Homo sapiens, UniProt P08684). Nature of the series: Inhibition of CYP3A4 (unknown origin) at 1 uM relative to control. Format: ADME.
For another series, the target named is hERG (KCNH2) (Homo sapiens, UniProt Q12809). Nature of the series: Inhibition of human ERG at 10 uM by patch clamp method relative to control. Format: toxicity. In general terms: In patch-clamp work, channel activity is measured electrically.
Sequence of hERG (KCNH2) (Q12809 whole entry): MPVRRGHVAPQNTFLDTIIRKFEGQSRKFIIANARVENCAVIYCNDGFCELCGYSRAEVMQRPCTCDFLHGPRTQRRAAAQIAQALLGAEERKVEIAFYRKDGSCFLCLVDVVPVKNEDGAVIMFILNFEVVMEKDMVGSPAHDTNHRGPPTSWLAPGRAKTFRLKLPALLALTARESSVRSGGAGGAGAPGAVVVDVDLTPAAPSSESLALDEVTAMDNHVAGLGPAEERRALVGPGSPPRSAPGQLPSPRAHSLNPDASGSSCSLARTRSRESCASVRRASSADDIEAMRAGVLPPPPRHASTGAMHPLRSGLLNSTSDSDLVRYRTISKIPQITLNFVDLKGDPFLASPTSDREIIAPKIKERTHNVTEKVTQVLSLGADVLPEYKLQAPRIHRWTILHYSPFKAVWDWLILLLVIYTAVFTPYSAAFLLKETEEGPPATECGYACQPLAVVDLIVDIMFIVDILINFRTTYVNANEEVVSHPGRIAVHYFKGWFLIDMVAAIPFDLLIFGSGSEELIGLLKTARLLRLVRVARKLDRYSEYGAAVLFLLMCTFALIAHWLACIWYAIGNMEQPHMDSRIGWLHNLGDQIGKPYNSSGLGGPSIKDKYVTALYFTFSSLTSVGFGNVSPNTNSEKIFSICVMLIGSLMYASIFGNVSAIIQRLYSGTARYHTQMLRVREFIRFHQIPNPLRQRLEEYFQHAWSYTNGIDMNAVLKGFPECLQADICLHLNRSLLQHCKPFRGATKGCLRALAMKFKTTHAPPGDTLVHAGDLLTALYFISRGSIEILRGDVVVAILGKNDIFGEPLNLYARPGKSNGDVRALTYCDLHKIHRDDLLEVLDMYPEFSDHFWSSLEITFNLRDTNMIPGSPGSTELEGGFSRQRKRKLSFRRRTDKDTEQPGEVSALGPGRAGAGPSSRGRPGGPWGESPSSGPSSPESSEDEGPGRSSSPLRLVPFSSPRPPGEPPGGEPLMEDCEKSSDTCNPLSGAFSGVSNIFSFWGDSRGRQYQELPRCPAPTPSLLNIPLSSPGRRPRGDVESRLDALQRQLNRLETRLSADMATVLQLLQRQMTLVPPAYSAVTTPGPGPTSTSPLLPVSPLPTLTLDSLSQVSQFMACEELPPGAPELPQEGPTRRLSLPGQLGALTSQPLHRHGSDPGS
For a further series, the target named is CYP2C9 (Homo sapiens, UniProt P11712). As to the kind of experiment: Inhibition of CYP2C9 (unknown origin) at 1 uM relative to control. Format: ADME.
Sequence of CYP2C9 (P11712 whole entry): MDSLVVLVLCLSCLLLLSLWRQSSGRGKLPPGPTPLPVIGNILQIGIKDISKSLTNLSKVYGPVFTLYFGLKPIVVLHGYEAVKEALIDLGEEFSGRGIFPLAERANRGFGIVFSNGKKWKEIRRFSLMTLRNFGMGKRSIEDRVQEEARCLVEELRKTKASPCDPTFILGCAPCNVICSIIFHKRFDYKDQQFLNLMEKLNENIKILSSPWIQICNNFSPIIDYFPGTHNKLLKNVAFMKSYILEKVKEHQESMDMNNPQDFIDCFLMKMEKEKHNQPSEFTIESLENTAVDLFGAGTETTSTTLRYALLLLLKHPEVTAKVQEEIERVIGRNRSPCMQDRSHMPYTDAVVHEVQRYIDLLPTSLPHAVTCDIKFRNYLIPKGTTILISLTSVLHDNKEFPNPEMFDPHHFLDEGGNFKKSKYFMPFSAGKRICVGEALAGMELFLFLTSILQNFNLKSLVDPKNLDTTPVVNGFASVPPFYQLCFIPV
Series [14] is described as follows: Clearance in mouse at 1 mg/kg, iv. Format: ADME, organism-based. As to conditions: in vivo.
Series [15] addresses Tyrosine-protein kinase JAK2 (Homo sapiens, UniProt O60674). Nature of the series: Inhibition of JAK2 dependent GM-CSF stimulated STAT3 phosphorylation in human TF-1 cells. Format: cell-based.
Series [16] is described as follows: Half life in mouse at 30 mg/kg, IG. Format: ADME, organism-based. Particulars: in vivo, po.
Series [17] can be described thus: MRT (0 to t) in mouse at 30 mg/kg, IG. Particulars: in vivo, po. Format: ADME, organism-based.
A short description of series [18]: AUC(0 to infinity) in mouse at 30 mg/kg, IG. Format: ADME, organism-based. The arrangement: dose 30 mg/kg, route ig. Particulars: in vivo, po.
The nature of series [19]: Tmax in mouse at 30 mg/kg, IG. As to conditions: in vivo, po. Format: ADME, organism-based.
The next series concerns the target CYP2C19 (Homo sapiens, UniProt P33261). Nature of the series: Inhibition of CYP2C19 (unknown origin) at 1 uM relative to control. Format: ADME.
Series [20] in a line: Bioavailability in mouse at 30 mg/kg, IG. Format: ADME, organism-based. Particulars: in vivo, po.
A further series deals with T3, CYP2B6 (Homo sapiens, UniProt P20813).
T3 sequence (P20813 whole entry): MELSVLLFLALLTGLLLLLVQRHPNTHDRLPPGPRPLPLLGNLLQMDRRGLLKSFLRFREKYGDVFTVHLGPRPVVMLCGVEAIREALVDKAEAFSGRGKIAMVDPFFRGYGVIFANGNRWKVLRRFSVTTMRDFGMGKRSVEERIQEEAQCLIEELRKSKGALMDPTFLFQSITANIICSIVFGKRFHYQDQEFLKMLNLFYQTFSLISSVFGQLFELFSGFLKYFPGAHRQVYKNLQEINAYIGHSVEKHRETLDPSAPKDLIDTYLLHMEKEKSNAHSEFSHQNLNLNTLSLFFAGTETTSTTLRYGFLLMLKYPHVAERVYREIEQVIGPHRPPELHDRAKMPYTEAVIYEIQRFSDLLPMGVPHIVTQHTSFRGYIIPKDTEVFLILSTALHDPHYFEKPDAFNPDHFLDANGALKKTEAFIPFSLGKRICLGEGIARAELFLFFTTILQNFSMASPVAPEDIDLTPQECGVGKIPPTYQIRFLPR
As to the kind of experiment: Inhibition of CYP2B6 (unknown origin) at 1 uM relative to control. Format: ADME.

Active and inactive are the calls of the source. No cut-off for these calls is given here.

T1 sequence (P29597 whole entry, the tested form may be a part): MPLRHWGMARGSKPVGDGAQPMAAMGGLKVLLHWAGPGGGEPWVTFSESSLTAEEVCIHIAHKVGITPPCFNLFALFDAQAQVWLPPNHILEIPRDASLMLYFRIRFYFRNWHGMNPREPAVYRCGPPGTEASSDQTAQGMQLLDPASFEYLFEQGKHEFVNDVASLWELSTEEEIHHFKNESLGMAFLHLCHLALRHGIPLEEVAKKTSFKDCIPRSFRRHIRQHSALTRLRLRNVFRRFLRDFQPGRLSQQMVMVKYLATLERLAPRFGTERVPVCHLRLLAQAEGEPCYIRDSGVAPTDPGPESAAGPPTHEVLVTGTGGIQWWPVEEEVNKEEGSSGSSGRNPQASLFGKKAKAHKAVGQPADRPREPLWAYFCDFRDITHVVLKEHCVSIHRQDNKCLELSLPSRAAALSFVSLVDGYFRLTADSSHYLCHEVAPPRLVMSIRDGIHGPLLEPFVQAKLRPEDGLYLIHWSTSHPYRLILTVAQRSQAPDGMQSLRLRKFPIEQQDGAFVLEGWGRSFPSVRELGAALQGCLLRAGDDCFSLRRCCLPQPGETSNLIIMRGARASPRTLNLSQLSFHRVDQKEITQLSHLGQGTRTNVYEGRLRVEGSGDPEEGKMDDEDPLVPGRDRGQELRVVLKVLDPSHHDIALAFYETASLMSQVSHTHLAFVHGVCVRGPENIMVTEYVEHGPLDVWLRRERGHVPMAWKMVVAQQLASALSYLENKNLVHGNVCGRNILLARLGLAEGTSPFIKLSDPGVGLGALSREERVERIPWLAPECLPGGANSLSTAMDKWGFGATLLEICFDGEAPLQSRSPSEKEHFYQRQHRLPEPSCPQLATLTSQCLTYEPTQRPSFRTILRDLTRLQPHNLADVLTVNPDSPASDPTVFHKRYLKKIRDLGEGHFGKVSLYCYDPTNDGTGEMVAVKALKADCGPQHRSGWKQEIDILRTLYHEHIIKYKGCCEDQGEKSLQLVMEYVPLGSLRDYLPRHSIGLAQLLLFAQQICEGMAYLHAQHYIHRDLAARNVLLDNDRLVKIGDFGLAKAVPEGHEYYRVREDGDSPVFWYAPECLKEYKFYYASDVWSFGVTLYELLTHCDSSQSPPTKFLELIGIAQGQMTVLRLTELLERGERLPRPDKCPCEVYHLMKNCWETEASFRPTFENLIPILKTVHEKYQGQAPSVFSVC
Sequence of CYP3A4 (P08684 whole entry): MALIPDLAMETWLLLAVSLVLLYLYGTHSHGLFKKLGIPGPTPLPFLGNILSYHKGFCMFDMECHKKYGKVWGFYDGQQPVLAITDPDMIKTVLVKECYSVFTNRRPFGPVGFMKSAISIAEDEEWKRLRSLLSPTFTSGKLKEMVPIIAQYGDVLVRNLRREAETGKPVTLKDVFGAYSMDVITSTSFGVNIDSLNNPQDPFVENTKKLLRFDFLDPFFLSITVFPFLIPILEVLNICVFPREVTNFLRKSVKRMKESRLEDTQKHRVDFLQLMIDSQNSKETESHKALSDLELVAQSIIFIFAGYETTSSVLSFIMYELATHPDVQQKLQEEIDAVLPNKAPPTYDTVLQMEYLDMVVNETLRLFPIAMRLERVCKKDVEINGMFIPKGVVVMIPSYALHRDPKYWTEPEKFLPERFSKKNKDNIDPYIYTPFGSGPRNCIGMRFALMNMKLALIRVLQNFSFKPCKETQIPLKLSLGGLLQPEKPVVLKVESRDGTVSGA
Sequence of CYP2D6 (P10635 whole entry): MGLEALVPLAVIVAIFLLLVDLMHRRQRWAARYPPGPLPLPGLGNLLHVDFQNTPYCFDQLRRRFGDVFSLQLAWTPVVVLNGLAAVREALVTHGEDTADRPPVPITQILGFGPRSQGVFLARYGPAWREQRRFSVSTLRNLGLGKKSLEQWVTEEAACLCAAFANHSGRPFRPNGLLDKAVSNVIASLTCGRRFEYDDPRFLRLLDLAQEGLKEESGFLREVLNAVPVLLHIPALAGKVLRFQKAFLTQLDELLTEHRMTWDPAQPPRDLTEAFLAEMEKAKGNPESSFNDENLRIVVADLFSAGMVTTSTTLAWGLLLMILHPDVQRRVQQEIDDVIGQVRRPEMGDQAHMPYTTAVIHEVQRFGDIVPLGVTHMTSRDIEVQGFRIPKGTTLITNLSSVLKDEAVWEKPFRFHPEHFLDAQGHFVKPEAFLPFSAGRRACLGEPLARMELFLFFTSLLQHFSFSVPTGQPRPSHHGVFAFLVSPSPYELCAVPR
Sequence of CYP2C19 (P33261 whole entry): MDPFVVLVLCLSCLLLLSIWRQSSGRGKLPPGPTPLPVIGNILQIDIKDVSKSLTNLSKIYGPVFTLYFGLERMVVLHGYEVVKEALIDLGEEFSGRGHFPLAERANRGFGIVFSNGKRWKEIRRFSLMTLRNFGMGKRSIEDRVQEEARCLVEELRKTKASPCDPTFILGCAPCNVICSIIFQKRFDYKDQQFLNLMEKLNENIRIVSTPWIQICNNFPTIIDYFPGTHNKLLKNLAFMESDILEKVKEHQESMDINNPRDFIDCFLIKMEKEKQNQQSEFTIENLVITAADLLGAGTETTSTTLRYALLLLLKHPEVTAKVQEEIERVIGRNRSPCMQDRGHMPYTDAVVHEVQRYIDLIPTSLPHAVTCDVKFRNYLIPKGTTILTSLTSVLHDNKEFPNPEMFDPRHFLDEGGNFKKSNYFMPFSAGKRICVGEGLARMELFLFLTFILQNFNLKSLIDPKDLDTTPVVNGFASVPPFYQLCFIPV

The Tm is the temperature at which the thermal transition is half complete. With `CNC(=O)c1nnc(NC(=O)C2CC2)cc1Nc1cccc(C(=O)Nc2ccc(-c3ncn(C4CC4)n3)cc2)c1OC`, the melting temperature (Tm) in series [1] turned out to be 57 °C; in series [2], 62 °C. Also, in the series on Mus musculus, the outcome was Active.
In general, IC50 refers to the concentration needed to halve the response being measured. The compound `[2H]C([2H])([2H])NC(=O)c1nnc(NC(=O)C2CC2)cc1Nc1cccc(C(=O)Nc2ccc(C3CCCNC3=O)cc2)c1OC` (stereo not drawn) registered an IC50 in [3] of 1.8 nM. Also, the remaining at 1 h in [4] came to 44.8%; in [5], 41.8%.
The term Vd denotes the apparent volume that relates the amount in the body to the concentration in plasma or blood. By Cmax is commonly meant the peak of the concentration-time curve. As usually defined, the inhibition is the relative decrease from the control value, in per cent. As a reminder, the half-life is how long it takes for the measured level to halve. Read a low half-life as fast loss. By MRT last is commonly meant a mean duration of stay, worked out from the concentration-time curve. One may read the AUC as the area under the concentration-time curve, a measure of exposure. A lower AUC goes with low exposure. As a reminder, the clearance is the rate of elimination divided by the concentration. The low end stands for a low capacity for elimination, the high end for a high capacity for elimination. By Tmax is commonly meant the time at which the peak concentration occurs. `[2H]C([2H])([2H])NC(=O)c1nnc(NC(=O)C2CC2)cc1Nc1cccc(C(=O)Nc2ccc(-c3ncn(C4CC4)n3)cc2)c1OC` had a Vd in [6] of 1.29 L/kg. This compound also showed a Cmax in series [7] of 7100 ng/mL. Also, the IC50 stood at 972 nM against JAK3/JAK1, 4.8 nM in [3] and 2670 nM in [15]. Also, the inhibition at 1 µM was -9% at CYP2D6; 1.18% against CYP1A2; 5.25% at CYP3A4; 7% against CYP2C9; -5.42% against CYP2C19; 16.9% against CYP2B6. The half-life was 91.2 min in series [8] and 882 min in series [16]. Moreover, the fraction unbound in [9] was 0.0022. The Activity entry in series [10] is reported as “Non-Toxic”. The same compound yielded a C0 in series [11] of 702 ng/mL. In addition, the mean residence time (MRT last) in series [12] stood at 2.12 h; in series [17], 5.21 h. Also, the AUC in series [13] worked out at 1694 ng·h/mL; in series [18], 171.069 µg·h/mL. For the same compound, the inhibition at 10 µM at hERG (KCNH2) worked out at 27.8%. Moreover, the clearance in series [14] is 9.83 mL/min/kg. Further, the remaining at 1 h in series [4] amounted to 93.3%; in series [5], 106%. In [19], the Tmax is 4 h. The compound further showed a F in [20] of 118.87%.
`[2H]C([2H])([2H])NC(=O)c1nnc(Nc2ccc(F)cn2)cc1Nc1cccc(C(=O)Nc2ccc(N3CCCCC3=O)cc2)c1OC`: half-maximal inhibition in series [3] (IC50) was put at 1 nM. The remaining at 1 h was 27.5% in series [4] and 39.9% in series [5].
`[2H]C([2H])([2H])NC(=O)c1nnc(NC(=O)C2CC2)cc1Nc1cccc(C(=O)Nc2ccc(N3CCCCCC3=O)cc2)c1OC`: in series [3], the IC50 was determined as 2.5 nM. Besides, the remaining at 1 h in series [4] amounted to 5.63%; in series [5], 0.39%.
